Where “and” joins values, the source holds several entries; their conditions need not be identical. Equal entries are not always repeated. After the bases stand the sugars from the 5' end (letter, count) and the backbone: PS all phosphorothioate, else s phosphorothioate and o phosphodiester by linkage. Methylation of C is not given here. k = constrained ethyl (cEt); d = 2'-deoxy (DNA)
molecular target: MALAT1; details: ASO, A431, 0.005 µM

Going from CAACATATTGCCGACC (sugars k3 d10 k3, PS) to GCATAAAGCTGAAATC (sugars k3 d10 k3, PS), the target mRNA inhibition rises from -26% to 4%.

Compared with GGAGTTACTTGCCAAC (sugars k3 d10 k3, PS), ACTCCCCCATTATATT (sugars k3 d10 k3, PS) is lower in target mRNA inhibition: 24% for the first, 2% for the second.

Going from CTCAGTCCTAGCTTCA (sugars k3 d10 k3, PS) to ACTGCAAGGTCTCATA (sugars k3 d10 k3, PS), the target mRNA inhibition falls from 42% to -1%.

First: TTCGGATGCTTCACTC (sugars k3 d10 k3, PS)
Second: TAGGGAAAAGTGGTTG (sugars k3 d10 k3, PS)
The target mRNA inhibition of the first is higher: 48% for the first, -13% for the second.

Compared with CCCTAACATGCAATAC (sugars k3 d10 k3, PS), CAAACTAAGCTACTAT (sugars k3 d10 k3, PS) is higher in target mRNA inhibition: 14% for the first, 15% for the second.

Going from GGCGGACTTTCTCCCC (sugars k3 d10 k3, PS) to TTCTAACTTCTGCACC (sugars k3 d10 k3, PS), the target mRNA inhibition rises from -17% to 33%.

Going from GCCAACTTGGAAGTTG (sugars k3 d10 k3, PS) to ACTCGCTCCTTCCTGG (sugars k3 d10 k3, PS), the target mRNA inhibition rises from -19% to 48%.

Compared with AACCCCCGGAACTTTT (sugars k3 d10 k3, PS), AGAAGAATCCCCCCCA (sugars k3 d10 k3, PS) is lower in target mRNA inhibition: 1% for the first, -13% for the second.

Going from CATAAGTAAGTTCCAG (sugars k3 d10 k3, PS) to CTACAACACCCGGAAA (sugars k3 d10 k3, PS), the target mRNA inhibition falls from 49% to 33%.

Compared with TCCTGAAATCCCCTAG (sugars k3 d10 k3, PS), CTGTAAACCTGTGGTG (sugars k3 d10 k3, PS) is higher in target mRNA inhibition: -12% for the first, 15% for the second.

Compared with AGCTGCAGGCTATTAC (sugars k3 d10 k3, PS), TGAGGCAAGTCCTCAT (sugars k3 d10 k3, PS) is lower in target mRNA inhibition: 39% for the first, 5% for the second.

Going from GCTAGGGAAAAGTGGT (sugars k3 d10 k3, PS) to CGTCCTGGAAACCAGG (sugars k3 d10 k3, PS), the target mRNA inhibition rises from 5% to 21%.

Compared with CTAGATTCACTGAATC (sugars k3 d10 k3, PS), TACAAAAGCTACCATC (sugars k3 d10 k3, PS) is higher in target mRNA inhibition: 7% for the first, 12% for the second.

Compared with GCCCGCTTTCCCCCTT (sugars k3 d10 k3, PS), AACCACACACTACCAT (sugars k3 d10 k3, PS) is higher in target mRNA inhibition: -29% for the first, -7% for the second.

Compared with CAGGCTGGTTATGACT (sugars k3 d10 k3, PS), AGACAGATTAGTAGTC (sugars k3 d10 k3, PS) is lower in target mRNA inhibition: 26% for the first, -8% for the second.

First: GCAATTCAAAATCCTG (sugars k3 d10 k3, PS)
Second: TAAGCCTTCGGTGCCT (sugars k3 d10 k3, PS)
The target mRNA inhibition of the first is higher: 51% for the first, 4% for the second.

Compared with ACCCGGAAATCGGCCT (sugars k3 d10 k3, PS), ATCCCAACCGTAACAG (sugars k3 d10 k3, PS) is higher in target mRNA inhibition: -6% for the first, 13% for the second.

Compared with CTGTGGTTTTAATACC (sugars k3 d10 k3, PS), TATAATAGAGCTACTT (sugars k3 d10 k3, PS) is lower in target mRNA inhibition: 51% for the first, 15% for the second.

First: CCCCGTCCTGGAAACC (sugars k3 d10 k3, PS)
Second: AATCCCTTCAGGATCA (sugars k3 d10 k3, PS)
The target mRNA inhibition of the first is higher: 21% for the first, 8% for the second.

First: GAGCATTGGAGATCAG (sugars k3 d10 k3, PS)
Second: CATTCCTTCGGATGCT (sugars k3 d10 k3, PS)
The target mRNA inhibition of the first is lower: 29% for the first, 38% for the second.

Compared with TGAACCAAAGCTGCAC (sugars k3 d10 k3, PS), GAACTCCACAGCTCTT (sugars k3 d10 k3, PS) is higher in target mRNA inhibition: 2% for the first, 33% for the second.

First: ATGCACTGGTACACCC (sugars k3 d10 k3, PS)
Second: GATTAATGTAGTGTAA (sugars k3 d10 k3, PS)
The target mRNA inhibition of the first is higher: 24% for the first, 23% for the second.

First: TGGCAAAATGGCGGAC (sugars k3 d10 k3, PS)
Second: AATGTACTCAGCTTCA (sugars k3 d10 k3, PS)
The target mRNA inhibition of the first is lower: 19% for the first, 48% for the second.

Compared with GGAGTTGAGGCAAGTC (sugars k3 d10 k3, PS), CAACTAAGCGAATGGC (sugars k3 d10 k3, PS) is lower in target mRNA inhibition: 41% for the first, 24% for the second.

First: ATATTTTAAACGGGTC (sugars k3 d10 k3, PS)
Second: TCTCTTGAGGGACAGT (sugars k3 d10 k3, PS)
The target mRNA inhibition of the first is higher: 16% for the first, -7% for the second.

Compared with AGCTGTCAATTAATGC (sugars k3 d10 k3, PS), CCTTTATCACTCAGCT (sugars k3 d10 k3, PS) is higher in target mRNA inhibition: 10% for the first, 54% for the second.

Compared with ACCACGAACTGCTGCT (sugars k3 d10 k3, PS), GAAAACCCACTCTTGG (sugars k3 d10 k3, PS) is lower in target mRNA inhibition: 52% for the first, 10% for the second.

First: TTTGAACCCCGTCCTG (sugars k3 d10 k3, PS)
Second: AAGAACTAGTGGTTCC (sugars k3 d10 k3, PS)
The target mRNA inhibition of the first is lower: 6% for the first, 30% for the second.

First: GCACGGGCTGTCTGCT (sugars k3 d10 k3, PS)
Second: CCACTTGATCCCAACT (sugars k3 d10 k3, PS)
The target mRNA inhibition of the first is lower: -12% for the first, 47% for the second.

Going from GACAGTAGGTATAGTT (sugars k3 d10 k3, PS) to GAACAAGTCCTACAAT (sugars k3 d10 k3, PS), the target mRNA inhibition rises from -13% to 32%.

Compared with AAGAATCCCCCCCAAG (sugars k3 d10 k3, PS), CATCCAAACTCTACAT (sugars k3 d10 k3, PS) is lower in target mRNA inhibition: 28% for the first, 23% for the second.

First: TTGTCCTACTTTAAGC (sugars k3 d10 k3, PS)
Second: CAGTTACTCCAGCATA (sugars k3 d10 k3, PS)
The target mRNA inhibition of the first is higher: 30% for the first, 24% for the second.

Going from CTTCAACTGGGAATAC (sugars k3 d10 k3, PS) to TGGCATCAAGGCACTG (sugars k3 d10 k3, PS), the target mRNA inhibition rises from 7% to 49%.

First: TTACGCAACTGAGCCC (sugars k3 d10 k3, PS)
Second: CTGCGCTTAAGAGGGC (sugars k3 d10 k3, PS)
The target mRNA inhibition of the first is lower: 11% for the first, 34% for the second.

First: CGCTAAGATGCTAGCT (sugars k3 d10 k3, PS)
Second: TACTATAGCATCTGTG (sugars k3 d10 k3, PS)
The target mRNA inhibition of the first is higher: -6% for the first, -7% for the second.

Compared with TGAGTATAAGCCTGAA (sugars k3 d10 k3, PS), TTAGGTATGAGCTTCA (sugars k3 d10 k3, PS) is lower in target mRNA inhibition: 25% for the first, 18% for the second.

Going from AGATACCTGTCTGAGG (sugars k3 d10 k3, PS) to TAACATAGTTCAACCC (sugars k3 d10 k3, PS), the target mRNA inhibition rises from 12% to 17%.

Going from CTAAGAGACATTCAAG (sugars k3 d10 k3, PS) to AACCACTCGCTTTCCC (sugars k3 d10 k3, PS), the target mRNA inhibition rises from 27% to 41%.

First: GGTTTTAATACCCTTC (sugars k3 d10 k3, PS)
Second: GTACGAAACTCCCCCA (sugars k3 d10 k3, PS)
The target mRNA inhibition of the first is higher: 51% for the first, 38% for the second.

First: GCACTAAAGATCACTG (sugars k3 d10 k3, PS)
Second: AAAAGTGGTTGCCCGC (sugars k3 d10 k3, PS)
The target mRNA inhibition of the first is lower: 23% for the first, 28% for the second.

First: ACATATTTTGCCCCCA (sugars k3 d10 k3, PS)
Second: GTTAACAATTTGCAGG (sugars k3 d10 k3, PS)
The target mRNA inhibition of the first is lower: 19% for the first, 40% for the second.

First: ACCAAAGCTGCACTGT (sugars k3 d10 k3, PS)
Second: GCTGCAAACTTTAGAC (sugars k3 d10 k3, PS)
The target mRNA inhibition of the first is higher: 15% for the first, -9% for the second.

Compared with GGCAAATTAATGGCCT (sugars k3 d10 k3, PS), GTGTGATAGTTCAGGG (sugars k3 d10 k3, PS) is lower in target mRNA inhibition: 25% for the first, 8% for the second.

Going from AATTTTTCTACCGTTT (sugars k3 d10 k3, PS) to GCGAGTTCAAGTGGCC (sugars k3 d10 k3, PS), the target mRNA inhibition falls from 11% to -5%.

Going from TACTTGCCAACTTGGA (sugars k3 d10 k3, PS) to TGCAGTCCTGCGACTT (sugars k3 d10 k3, PS), the target mRNA inhibition falls from 51% to 15%.

Going from TCCTGACAAATTATAC (sugars k3 d10 k3, PS) to TAATGCTAGTCCTCAG (sugars k3 d10 k3, PS), the target mRNA inhibition rises from 28% to 38%.

First: CGCCATGGAAAGCGAG (sugars k3 d10 k3, PS)
Second: CATTACGCAACTGAGC (sugars k3 d10 k3, PS)
The target mRNA inhibition of the first is higher: 20% for the first, -1% for the second.

Going from CATATTTTGCCCCCAC (sugars k3 d10 k3, PS) to CTCGGGCTGCAGGCTG (sugars k3 d10 k3, PS), the target mRNA inhibition rises from 15% to 19%.

Going from TCAGGATCATTAAGCC (sugars k3 d10 k3, PS) to ACCTCTTAAAGCACTT (sugars k3 d10 k3, PS), the target mRNA inhibition falls from 37% to 18%.

Going from AGCCTTGCAGGGACGG (sugars k3 d10 k3, PS) to CACCACCTGGAATGGC (sugars k3 d10 k3, PS), the target mRNA inhibition rises from -21% to 8%.

Going from TCAATAGTACTATAGC (sugars k3 d10 k3, PS) to AAAATGGCGGACTTTC (sugars k3 d10 k3, PS), the target mRNA inhibition rises from 25% to 30%.

Going from AGACAGACCTAAGGGA (sugars k3 d10 k3, PS) to TCCCTGTTAAGACCAT (sugars k3 d10 k3, PS), the target mRNA inhibition rises from 21% to 27%.

With TTCTTCGCCTTCCCGT (sugars k3 d10 k3, PS) the target mRNA inhibition was 66% and 49%.
For ACTGCTTACAGATTTG (sugars k3 d10 k3, PS), the target mRNA inhibition was 61% and 64%.
With AATTGGTAGCTTTCAT (sugars k3 d10 k3, PS) the target mRNA inhibition was 64% and 81%.
CCTTCGGATGCTTCAC (sugars k3 d10 k3, PS) was tested, and the target mRNA inhibition was 58% and 78%.
For GGATTAATGTAGTGTA (sugars k3 d10 k3, PS), the target mRNA inhibition was 86% and 96%.
CTTGAGATTTGGGCTT (sugars k3 d10 k3, PS) was tested, and the target mRNA inhibition was 12% and 2%.
For GTGTAGCACCTGGGTC (sugars k3 d10 k3, PS), the target mRNA inhibition was 64% and 46%.
For TTAGTTGGCATCAAGG (sugars k3 d10 k3, PS), the target mRNA inhibition was 74% and 70%.
For GGTTTAAGTTGGTTTT (sugars k3 d10 k3, PS), the target mRNA inhibition was 90% and 97%.
ATTGGTAGCTTTCATT (sugars k3 d10 k3, PS) was tested, and the target mRNA inhibition was 70% and 83%.

Reference: the OligoGym collection
